Like-named read-outs stand apart in the source and are kept apart here.
Assays:
B. burgdorferi = assay: Study B: microscopic examination of joints and skin at necropsy; type: in vivo, beagle dogs; details: for Number of Joints with Changes as Described for Lyme disease: N = 8
Method: (§1) Thirty-two (18 male and 14 female) beagle dogs were sero-negative for Borrelia burgdorferi, not vaccinated with any Borrelia spp vaccines, and acclimated at the study facility for seven days. The study was conducted under National Research Council guidelines (1996). […] Field-caught Ixodes from the northeast USA were placed on the dogs without containment chambers for 10 days; after ticks fed to repletion, dogs were treated with two applications of an approved topical acaricide with a 30-day interval between applications.
(§2) Forty days post-challenge, and prior to antibiotic treatments, blood was collected from each dog as were two skin biopsy punch samples near tick attachment sites. Blood was collected approximately monthly post-treatment. Skin biopsies were taken near the tick attachment site on Days 48/49, 118, 146, 180, and 315. Serum antibodies to Borrelia were assayed using the IDEXX SNAP-4Dx and QC6 ELISA. In cooperation with Cornell University, serum samples were analyzed using fluorescent-bead-based multiplex assays detecting antibodies against B. burgdorferi outer surface proteins OspA, OspC, and OspF. Data were expressed as median fluorescent intensities (MFI), and shown to be specific and sensitive to provide interpretative guidelines regarding infection. The skin biopsies were collected for a polymerase chain reaction (PCR; FlaB) assay and cultured for spirochete detection. At the end of the study, blood and skin biopsies were collected and synovial tissue from the joints were harvested at necropsy.
On Day 75 and Day 89 Convenia was administered to the eight dogs in T04 (8 mg/kg bodyweight; subcutaneous injection). The other treated groups received their respective regimens daily and orally for 30 days from Days 75 to 104. […] Dogs in T01 served as infected, untreated, controls. Inter-treatment comparisons to evaluate antibiotic efficacy included clinical signs, serology, culture results and pathology.
At necropsy ten joints were harvested per each dog, formalin-fixed, stained and examined microscopically. Joints included the carpus, elbow, shoulder, stifle and tarsus on both the right and left limbs. Further, a section of skin near tick attachment sites was evaluated from each dog. There were two dogs in the Convenia group (25%) with tissues showing changes as described for Lyme disease, compared to seven controls (87.5%) and three (37.5%) to four (50.0%) dogs in the other antibiotic-treated groups (Table 7). […] The Convenia group had the lowest incidence of joint changes with six affected of 80.

[1] = tested on: B. burgdorferi outer surface protein OspF; assay: Study B: fluorescent-bead-based multiplex assay, antibodies against OspF; type: in vivo, beagle dogs; details: for Multiplex Assay OspF: No. Dogs > Positive Threshold (# dogs > 1500): 8 dogs/group
Method: as §1
as §2, with “Data were expressed as median fluorescent intensities (MFI), and shown to be specific and sensitive to provide interpretative guidelines regarding infection.” left out
On Day 75 and Day 89 Convenia was administered to the eight dogs in T04 (8 mg/kg bodyweight; subcutaneous injection). The other treated groups received their respective regimens daily and orally for 30 days from Days 75 to 104. […] Dogs in T01 served as infected, untreated, controls.

[2] = canine; cited from earlier work
[3] = feline; cited from earlier work
[4] = joints, skin, 8 dogs/group, necropsy

CO/N=C(\C(=O)N[C@@H]1C(=O)N2C(C(=O)[O-])=C([C@@H]3CCCO3)CS[C@H]12)c1csc(N)n1.[Na+] [Convenia, (6R,7R)-7-[[(2Z)-(2-amino-4-thiazolyl)(methoxyimino)acetyl]-amino]-8-oxo-3-[(2S)-tetrahydro-2-furanyl]-5-thia-1-azabicyclo[4.2.0]oct-2-ene-2-carboxylic acid, monosodium salt]
Number of Joints with Changes as Described for Lyme disease, Cumulative (B. burgdorferi; 80 total/group): 6 | Number of Joints with Changes as Described for Lyme disease (B. burgdorferi; Carpus L): 1 | Number of Joints with Changes as Described for Lyme disease (B. burgdorferi; Carpus R): 1 | Number of Joints with Changes as Described for Lyme disease (B. burgdorferi; Elbow L): 0 | Number of Joints with Changes as Described for Lyme disease (B. burgdorferi; Elbow R): 1 | Number of Joints with Changes as Described for Lyme disease (B. burgdorferi; Shoulder L): 0 | Number of Joints with Changes as Described for Lyme disease (B. burgdorferi; Shoulder R): 0 | Number of Joints with Changes as Described for Lyme disease (B. burgdorferi; Stifle L): 1 | Number of Joints with Changes as Described for Lyme disease (B. burgdorferi; Stifle R): 2 | Number of Joints with Changes as Described for Lyme disease (B. burgdorferi; Tarsus L): 0 | Number of Joints with Changes as Described for Lyme disease (B. burgdorferi; Tarsus R): 0 | No Tissue Changes, # Dogs (B. burgdorferi; [4]): 6 | No Tissue Changes, % (B. burgdorferi; [4]): 75% | Tissue Changes Described for Lyme Disease, # Dogs (B. burgdorferi; [4]): two | Tissue Changes Described for Lyme Disease, % (B. burgdorferi; [4]): 25% | Tissue Changes Described for Lyme Disease, # Dogs (B. burgdorferi; joints, skin, 8 dogs/group, necropsy, listed as T04, monosodium salt): 2 | Incidence of joint lesions, lower than in dogs administered doxycycline or amoxicillin orally for 30 days (B. burgdorferi; microscopic evaluation of articular joints): 2 fold | Multiplex Assay OspF: MFI Mean ([1]; Day 48 (pre-treatment)): 922.75 MFI | Multiplex Assay OspF: No. Dogs > Positive Threshold (# dogs > 1500) ([1]; Day 48 (pre-treatment)): 2 | Multiplex Assay OspF: No. Dogs > Positive Threshold (# dogs > 1500) ([1]; Day 48 (pre-treatment), monosodium salt): two | Multiplex Assay OspF: MFI Mean ([1]; Day 111): 704.13 MFI | Multiplex Assay OspF: No. Dogs > Positive Threshold (# dogs > 1500) ([1]; Day 111): 0 | Multiplex Assay OspF: MFI Mean ([1]; Day 145): 306.75 MFI | Multiplex Assay OspF: No. Dogs > Positive Threshold (# dogs > 1500) ([1]; Day 145): 0 | Multiplex Assay OspF: MFI Mean ([1]; Day 179): 270.00 MFI | Multiplex Assay OspF: No. Dogs > Positive Threshold (# dogs > 1500) ([1]; Day 179): 0 | Multiplex Assay OspF: MFI Mean ([1]; Day 221): 227.13 MFI | Multiplex Assay OspF: No. Dogs > Positive Threshold (# dogs > 1500) ([1]; Day 221): 0 | Multiplex Assay OspF: MFI Mean ([1]; Day 251): 221.88 MFI | Multiplex Assay OspF: No. Dogs > Positive Threshold (# dogs > 1500) ([1]; Day 251): 0 | Multiplex Assay OspF: MFI Mean ([1]; Day 281): 225.63 MFI | Multiplex Assay OspF: No. Dogs > Positive Threshold (# dogs > 1500) ([1]; Day 281): 0 | Multiplex Assay OspF: MFI Mean ([1]; Day 314): 239.88 MFI | Multiplex Assay OspF: No. Dogs > Positive Threshold (# dogs > 1500) ([1]; Day 314): 0 | Multiplex Assay OspF: MFI Mean ([1]; Day −15 (pre-infection)): 101.50 MFI | Multiplex Assay OspF: No. Dogs > Positive Threshold (# dogs > 1500) ([1]; Day −15 (pre-infection)): 0 | Antibody-OspF status of dogs ([1]; after Day 48): all dogs negative thereafter | Elimination half-life [2]: about 133 hours | Elimination half-life [3]: ~166 h
